“And” between values parts separate entries of the source, which are not always exact repeats. Identical values can stand only once. Inconclusive results and toxic doses are left out. No stated cut-off is given here; in the data, active means T/C of 150% or more; inactive means T/C below 125%. Peptide text beside a SMILES is read from it.
Tested on: L1210 leukemia ip in BDF1 mice, survival T/C
Assay: NCI In Vivo Anticancer Drug Screen. Data for tumor model L1210 Leukemia (intraperitoneal) in B6D2F1 (BDF1) mice
Conditions: endpoint: mean survival time, higher = longer survival
Procedure, shortened: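 Ratio derived from survival: compound-dosed mice over vehicle-dosed mice, all bearing a transplantable tumor.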

[1] = dose: 100.0 mg/kg/injection, schedule: Q04DX002 (ip), vehicle: Klucel (hydroxypropylcellulose) (HPC)
[2] = dose: 200.0 mg/kg/injection, schedule: Q04DX002 (ip), vehicle: Klucel (hydroxypropylcellulose) (HPC)
[3] = dose: 400.0 mg/kg/injection, schedule: Q04DX002 (ip), vehicle: Klucel (hydroxypropylcellulose) (HPC)
[4] = dose: 100.0 mg/kg/injection, schedule: Q04DX003 (ip), vehicle: saline with Tween-80
[5] = dose: 200.0 mg/kg/injection, schedule: Q04DX003 (ip), vehicle: saline with Tween-80
[6] = dose: 400.0 mg/kg/injection, schedule: Q04DX003 (ip), vehicle: saline with Tween-80
[7] = dose: 100.0 mg/kg/injection, schedule: Q04DX002 (ip), vehicle: saline
[8] = dose: 100.0 mg/kg/injection, schedule: Q01DX009 (ip), vehicle: Klucel (hydroxypropylcellulose) (HPC)
[9] = dose: 200.0 mg/kg/injection, schedule: Q01DX009 (ip), vehicle: Klucel (hydroxypropylcellulose) (HPC)
[10] = dose: 400.0 mg/kg/injection, schedule: Q01DX009 (ip), vehicle: Klucel (hydroxypropylcellulose) (HPC)
[11] = dose: 100.0 mg/kg/injection, schedule: Q04DX003 (ip), vehicle: Klucel (hydroxypropylcellulose) (HPC)
[12] = dose: 200.0 mg/kg/injection, schedule: Q04DX003 (ip), vehicle: Klucel (hydroxypropylcellulose) (HPC)
[13] = dose: 400.0 mg/kg/injection, schedule: Q04DX003 (ip), vehicle: Klucel (hydroxypropylcellulose) (HPC)
[14] = dose: 25.0 mg/kg/injection, schedule: Q01DX009 (ip), vehicle: Klucel (hydroxypropylcellulose) (HPC)
[15] = dose: 50.0 mg/kg/injection, schedule: Q01DX009 (ip), vehicle: Klucel (hydroxypropylcellulose) (HPC)
[16] = dose: 25.0 mg/kg/injection, schedule: Q04DX003 (ip), vehicle: Klucel (hydroxypropylcellulose) (HPC)
[17] = dose: 50.0 mg/kg/injection, schedule: Q04DX003 (ip), vehicle: Klucel (hydroxypropylcellulose) (HPC)
[18] = dose: 100.0 mg/kg/injection, schedule: Q04DX003 (ip), vehicle: saline
[19] = dose: 200.0 mg/kg/injection, schedule: Q04DX003 (ip), vehicle: saline
[20] = dose: 200.0 mg/kg/injection, schedule: Q01DX001 (ip), vehicle: saline
[21] = dose: 400.0 mg/kg/injection, schedule: Q01DX001 (ip), vehicle: saline

Measured: T/C

CCN(CCNC(=O)Nc1ccc(OC)cc1)c1ccccc1
inactive: dose: 100.0 mg/kg/injection, schedule: Q01DX009 (ip), vehicle: carboxymethylcellulose (CMC) 93 % of control and 100 % of control | [1] 103 % of control | dose: 100.0 mg/kg/injection, schedule: Q04DX002 (ip), vehicle: other 94 % of control and 98 % of control | dose: 100.0 mg/kg/injection, schedule: Q04DX003 (ip), vehicle: carboxymethylcellulose (CMC) 96 % of control | dose: 200.0 mg/kg/injection, schedule: Q01DX009 (ip), vehicle: carboxymethylcellulose (CMC) 93 % of control and 104 % of control | [2] 100 % of control | dose: 200.0 mg/kg/injection, schedule: Q04DX002 (ip), vehicle: other 91 % of control | dose: 200.0 mg/kg/injection, schedule: Q04DX003 (ip), vehicle: carboxymethylcellulose (CMC) 100 % of control | dose: 400.0 mg/kg/injection, schedule: Q01DX009 (ip), vehicle: carboxymethylcellulose (CMC) 96 % of control and 100 % of control | [3] 107 % of control | dose: 400.0 mg/kg/injection, schedule: Q04DX002 (ip), vehicle: other 102 % of control and 88 % of control | dose: 400.0 mg/kg/injection, schedule: Q04DX003 (ip), vehicle: carboxymethylcellulose (CMC) 96 % of control

COC1OC2COc3ccccc3OC2C2NC12 (stereo not drawn)
inactive: [1] 98 % of control | [2] 105 % of control | [3] 102 % of control

COc1ccc2c(c1)C(CO)c1ccc(Cl)cc1N2 (stereo not drawn)
inactive: [4] 93 % of control | [5] 96 % of control | [6] 94 % of control

CCN(CC)Cc1ccccc1COC(=O)/C=C/c1ccccc1
inactive: [7] 108 % of control | dose: 200.0 mg/kg/injection, schedule: Q04DX002 (ip), vehicle: saline 86 % of control | dose: 400.0 mg/kg/injection, schedule: Q04DX002 (ip), vehicle: saline 108 % of control

Cc1cc(C)n(/N=C/c2ccccn2)c(=O)c1C#N
inactive: dose: 75.0 mg/kg/injection, schedule: Q04DX003 (ip), vehicle: Klucel (hydroxypropylcellulose) (HPC) 94 % of control | dose: 100.0 mg/kg/injection, schedule: Q01DX001 (ip), vehicle: Klucel (hydroxypropylcellulose) (HPC) 97 % of control | dose: 150.0 mg/kg/injection, schedule: Q04DX003 (ip), vehicle: Klucel (hydroxypropylcellulose) (HPC) 97 % of control | dose: 200.0 mg/kg/injection, schedule: Q01DX001 (ip), vehicle: Klucel (hydroxypropylcellulose) (HPC) 97 % of control | dose: 300.0 mg/kg/injection, schedule: Q04DX003 (ip), vehicle: Klucel (hydroxypropylcellulose) (HPC) 100 % of control | dose: 400.0 mg/kg/injection, schedule: Q01DX001 (ip), vehicle: Klucel (hydroxypropylcellulose) (HPC) 102 % of control

CCc1nc(N(C)CC(=O)O)nc(CC)c1-c1ccccc1O
inactive: dose: 50.0 mg/kg/injection, schedule: Q04DX002 (ip), vehicle: Klucel (hydroxypropylcellulose) (HPC) 111 % of control | [1] 101 % of control and 86 % of control | [2] 104 % of control | [3] 86 % of control

C#CCN1C(=O)C(c2ccccc2)C2(CCN(C)CC2)C1=O (stereo not drawn)
inactive: dose: 100.0 mg/kg/injection, schedule: Q01DX001 (ip), vehicle: saline with Tween-80 105 % of control | dose: 200.0 mg/kg/injection, schedule: Q01DX001 (ip), vehicle: saline with Tween-80 108 % of control

O=C(NNC(=O)c1ccccc1O)c1ccccc1
inactive: dose: 100.0 mg/kg/injection, schedule: Q04DX002 (ip), vehicle: saline with Tween-80 93 % of control | dose: 200.0 mg/kg/injection, schedule: Q04DX002 (ip), vehicle: saline with Tween-80 93 % of control | dose: 400.0 mg/kg/injection, schedule: Q04DX002 (ip), vehicle: saline with Tween-80 97 % of control

COc1cccc(NC(=S)N2CCCCC2)c1
inactive: [8] 108 % of control | [9] 116 % of control | [10] 102 % of control

O=C1CC(N2CC2)C(=O)N1c1ccccc1 (stereo not drawn)
inactive: [8] 104 % of control | [11] 105 % of control | [9] 92 % of control | [12] 113 % of control | [13] 88 % of control

O=C(Nc1cccc(F)c1)Sc1ccc(Cl)cc1
inactive: [14] 98 % of control | [15] 108 % of control | [8] 105 % of control and 106 % of control and 112 % of control | [1] 95 % of control | [2] 98 % of control | [10] 86 % of control | [3] 109 % of control

O=C1Nc2ccc(Cl)cc2C(c2ccccc2)=NC1O (stereo not drawn)
inactive: [14] 103 % of control | [16] 98 % of control | [15] 101 % of control | [17] 104 % of control | [8] 98 % of control | [11] 104 % of control | [9] 107 % of control | [12] 114 % of control | [10] 91 % of control | [13] 111 % of control

CC(=O)CC(=O)Nc1cc(C)c(NC(=O)CC(C)=O)cc1C
inactive: [8] 95 % of control | [11] 98 % of control | [9] 93 % of control | [12] 96 % of control | [10] 103 % of control | [13] 98 % of control

NC(=O)c1ccc[n+](CCc2nc(N)c3[nH]cnc3n2)c1
inactive: dose: 50.0 mg/kg/injection, schedule: Q04DX003 (ip), vehicle: saline 97 % of control | [18] 97 % of control | [19] 103 % of control

NC(N)=NCCCC(N)C(=O)NC(CCC(=O)O)C(=O)O (stereo not drawn) (H-Arg-Glu-OH; configuration not given here)
inactive: dose: 25.0 mg/kg/injection, schedule: Q04DX002 (ip), vehicle: saline 98 % of control | dose: 50.0 mg/kg/injection, schedule: Q04DX002 (ip), vehicle: saline 121 % of control | [7] 110 % of control

OC(c1ccccc1)c1ccccn1 (stereo not drawn)
inactive: [18] 92 % of control | [19] 115 % of control | dose: 400.0 mg/kg/injection, schedule: Q04DX003 (ip), vehicle: saline 101 % of control

Cc1ccc2c(c1)C(=O)CCC2
inactive: dose: 177.0 mg/kg/injection, schedule: Q01DX001 (ip), vehicle: saline 94 % of control | [20] 95 % of control | dose: 266.0 mg/kg/injection, schedule: Q01DX001 (ip), vehicle: saline 94 % of control | [21] 94 % of control and 95 % of control | dose: 600.0 mg/kg/injection, schedule: Q01DX001 (ip), vehicle: saline 96 % of control

Clc1nc(N2CC2)nc(N2CC2)c1Br
inactive: dose: 0.2 mg/kg/injection, schedule: Q01DX Z (ip), vehicle: methylcellulose (MC) 88 % of control | dose: 0.5 mg/kg/injection, schedule: Q01DX Z (ip), vehicle: methylcellulose (MC) 104 % of control

CC(C)c1cc2c(cc1O)C1(C)CCCC(C)(C(=O)O)C1CC2 (stereo not drawn)
inactive: dose: 50.0 mg/kg/injection, schedule: Q04DX003 (ip), vehicle: acetone 87 % of control | dose: 100.0 mg/kg/injection, schedule: Q01DX001 (ip), vehicle: acetone 97 % of control | dose: 100.0 mg/kg/injection, schedule: Q04DX003 (ip), vehicle: acetone 90 % of control | dose: 200.0 mg/kg/injection, schedule: Q01DX001 (ip), vehicle: acetone 92 % of control | dose: 200.0 mg/kg/injection, schedule: Q04DX003 (ip), vehicle: acetone 89 % of control

CCN(CC)N=Nc1ccccc1-c1nc(N)nc(N)n1
inactive: [11] 95 % of control | [12] 108 % of control

CC(C)c1ccc(C(=O)C(O)c2ccc(C(C)C)cc2)cc1 (stereo not drawn)
inactive: dose: 100.0 mg/kg/injection, schedule: Q01DX009 (ip), vehicle: saline with Tween-80 93 % of control | dose: 200.0 mg/kg/injection, schedule: Q01DX009 (ip), vehicle: saline with Tween-80 97 % of control | dose: 400.0 mg/kg/injection, schedule: Q01DX009 (ip), vehicle: saline with Tween-80 97 % of control

NCNc1nc(NCN)nc(N(CN)CN)n1
inactive: [4] 92 % of control | [5] 88 % of control | [6] 88 % of control

CC(C)NC(=O)c1ccc(/C=N/N(C)C)cc1
inactive: [16] 104 % of control | [17] 106 % of control | [11] 95 % of control | [12] 101 % of control

O=c1[nH]nc(Sc2ccccc2)c(=O)[nH]1
inactive: dose: 100.0 mg/kg/injection, schedule: Q01DX001 (ip), vehicle: saline 97 % of control | [20] 97 % of control | [21] 97 % of control

Source: PubChem BioAssay AID248 (DTP/NCI, 2004)
